Laboratory results taken from US5288709A, “Erythromycin derivatives” (priority 1991, dated 1994).
Converted amounts (≈) assume the structure as drawn. Like-named read-outs stand apart in the source and are kept apart here.

Key:
[1] = test system: Staphylococcus aureus CMX 553; test: In-vitro antimicrobial activity primary screen (agar dilution MIC); type: cell-based; conditions: Staphylococcus aureus, CMX553, 24 h, BHI agar, 20-24 h, read-out: MIC
Method in brief: (§1)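 MIC is read as the lowest compound level yielding no growth, slight haze or sparse colonies on the inoculum spot, relative to a drug-free plate. Strains were replicator-inoculated (1:100 dilution) onto BHI agar plates holding twelve dilutions and held at 35-37 °C for 20-24 h, with erythromycin A as comparator.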

[2] = test system: Pseudomonas aeruginosa K799/WT; test: as above; type: cell-based; conditions: Pseudomonas aeruginosa K799/WT; BHI agar, 20-24 h; read-out: MIC
Method in brief: (§2)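 BHI agar dilution MIC, 35-37° C overnight (20-24 h), replicator inoculation at 1:100 or 1:10 for slow strains. Endpoint: no growth, slight haze or sparse colonies versus compound-free plate.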

[3] = test system: Pseudomonas aeruginosa A5007; test: as above; type: cell-based; conditions: Pseudomonas aeruginosa A5007; BHI agar, 20-24 h; read-out: MIC
Method in brief: as §2

Escherichia coli H560 = test: as above; type: cell-based; conditions: Escherichia coli H560; BHI agar, 20-24 h; read-out: MIC
Method in brief: as §2

[4] = test system: Klebsiella pneumoniae ATCC 8045; test: as above; type: cell-based; conditions: ATCC8045; Klebsiella pneumoniae ATCC 8045; BHI agar, 20-24 h; read-out: MIC
Method in brief: as §2

[5] = test system: Streptococcus bovis A5169; test: as above; type: cell-based; conditions: Streptococcus equinus, BHI agar, 20-24 h, read-out: MIC
Method in brief: as §2

Acinetobacter SP CMX 669 = test: as above; type: cell-based
Method in brief: as §2

Staphylococcus aureus 45 = test: as above; type: cell-based; conditions: BHI agar, 20-24 h, read-out: MIC
Method in brief: as §2

[6] = test system: Pseudomonas aeruginosa K799/61; test: as above; type: cell-based; conditions: Pseudomonas aeruginosa K799/61; BHI agar, 20-24 h; read-out: MIC
Method in brief: as §2

[7] = test system: Streptococcus agalactiae CMX 508; test: as above; type: cell-based; conditions: CMX508, BHI agar, 20-24 h, read-out: MIC
Method in brief: as §2

Escherichia coli SS = test: as above; type: cell-based; conditions: BHI agar, 20-24 h, read-out: MIC
Method in brief: as §2

[8] = test system: Enterobacter aerogenes ATCC 13048; test: as above; type: cell-based; conditions: Klebsiella aerogenes, Enterobacter aerogenes ATCC 13048, BHI agar, 20-24 h
Method in brief: as §2

[9] = test system: Micrococcus luteus ATCC 4698; test: as above; type: cell-based; conditions: ATCC4698, BHI agar, 20-24 h, read-out: MIC
Method in brief: as §2

[10] = test system: Staphylococcus aureus NCTC 10649; test: as above; type: cell-based; conditions: NCTC10649, BHI agar, 20-24 h, read-out: MIC
Method in brief: as §2

[11] = test system: Micrococcus luteus ATCC 9341; test: as above; type: cell-based; conditions: ATCC9341, BHI agar, 20-24 h, read-out: MIC
Method in brief: as §2

[12] = test system: Streptococcus pyrogenes 2548 INDUC; test: as above; type: cell-based; conditions: BHI agar, 20-24 h, read-out: MIC
Method in brief: as §2

[13] = test system: Staphylococcus aureus 642A; test: as above; type: cell-based; conditions: BHI agar, 20-24 h, read-out: MIC
Method in brief: as §2

[14] = test system: Staphylococcus epidermidis 3519; test: as above; type: cell-based; conditions: BHI agar, 20-24 h, read-out: MIC
Method in brief: as §2

[15] = test system: Staphylococcus aureus A5177; test: as above; type: cell-based
Method in brief: as §2

Pseudomonas cepacia 2961 = test: as above; type: cell-based; conditions: Burkholderia cepacia, BHI agar, 20-24 h, read-out: MIC
Method in brief: as §2

[16] = test system: Providencia stuartii CMX 640; test: as above; type: cell-based; conditions: CMX640; Providencia stuartii CMX 640; BHI agar, 20-24 h; read-out: MIC
Method in brief: as §2

Escherichia coli DC-2 = test: as above; type: cell-based; conditions: DC2; Escherichia coli DC-2; BHI agar, 20-24 h; read-out: MIC
Method in brief: as §2

Escherichia coli JUHL = test: as above; type: cell-based
Method in brief: as §2

[17] = test system: Staphylococcus aureus ATCC 6538P; test: as above; type: cell-based; conditions: Staphylococcus aureus, ATCC6538P, 24 h, BHI agar, 20-24 h
Method in brief: as §2

[18] = test system: Staphylococcus aureus 45 RAR2; test: as above; type: cell-based; conditions: Staphylococcus aureus, 45RAR2, 24 h, BHI agar, 20-24 h
Method in brief: as §2

[19] = test system: Pseudomonas aeruginosa BMH10; test: as above; type: cell-based; conditions: Pseudomonas aeruginosa, BMH10, 24 h, BHI agar, 20-24 h
Method in brief: as §2

[20] = test system: Streptococcus pyrogenes EES61; test: as above; type: cell-based; conditions: BHI agar, 20-24 h, read-out: MIC
Method in brief: as §2

[21] = test system: Enterococcus faecium ATCC 8043; test: as above; type: cell-based
Method in brief: as §2

[22] = Pharmacokinetic evaluation in dogs after a 10 mg/kg dose; conditions: dog, plasma; for half-life: t1/2 (biological half life); for bioavailability: % ABS (percent absorbance), from AUC (absolute bioavailability); for Cmax: Cmax (maximum concentration in blood); for Tmax: Tmax (time to achieve maximum concentration in blood)
Experimental: Selected compounds of the present invention were formulated as solutions in dilute lactobionic acid at a concentration of 10 or 20 mg/ml. Groups of two or three dogs were given a 10 mg macrolide/kg intravenous bolus or oral dose (by gavage). Plasma samples, obtained at selected time points from 15 minutes to 32 hours after dosing, were assayed using reverse phase HPLC with electrochemical detection (parent drug) and microbiological assay (total microbiological activity). Plasma concentration time curves were subjected to multi exponential curve fitting to determine terminal elimination half life values. Area under the curve (AUC) values, calculated by the trapezoidal method, were used to calculate absolute bioavailability.

[23] = test system: Staphylococcus aureus CMX 503A; test: In-vitro antimicrobial activity primary screen (agar dilution MIC); type: cell-based; conditions: Staphylococcus aureus, CMX503A, 24 h, BHI agar, 20-24 h, read-out: MIC
Method in brief: as §1

[24] = test system: Staphylococcus aureus CMX 686B; test: as above; type: cell-based; conditions: CMX686B, BHI agar, 20-24 h, read-out: MIC
Method in brief: as §1

[25] = test system: Staphylococcus aureus (NCTC 10649); test: In-vivo acute mouse protection assay; design: species or system Staphylococcus aureus; female Swiss albino mice; conditions: Staphylococcus aureus, NCTC10649, sc, 168 h; subcutaneous; dosed 1 and 5 h post-infection, observed 7 days; read-out: ED50
Experimental: (§3) An acute mouse protection test was conducted on ten mice with each of three concentrations of selected compounds of the invention. Each concentration was a four-fold dilution of the previous concentration. The initial concentration will vary with the microorganism with which the mouse is challenged.
(§4) The acute mouse protection test was conducted on female, Swiss albino mice, 18-20 grams in weight. […] To check the potency of the inoculum, a titration of the indicated test organism was carried out in control animals. The titration determines the LD50 for a particular microorganism. The treatment groups of animals were dosed orally, by gavage, or subcutaneously with the test compounds at 1 and 5 hours post-infection and observed for 7 days. The ED50 were calculated using the mortality data collected.

[26] = test system: Streptococcus pneumoniae (ATCC 6303); test: In-vivo acute mouse protection assay; design: species or system Streptococcus pneumoniae; female Swiss albino mice; conditions: dosed 1 and 5 h post-infection, observed 7 days
Experimental: as §3, §4

[27] = test system: Streptococcus pyogenes C-203; test: In-vivo acute mouse protection assay; design: species or system Streptococcus pyogenes; female Swiss albino mice; conditions: dosed 1 and 5 h post-infection, observed 7 days
Experimental: as §3, §4

[28] = po, oral 10 mg/kg, HPLC (parent drug)
[29] = po, oral 10 mg/kg, microbiological assay

CC[C@H]1OC(=O)[C@H](C)[C@@H](O[C@H]2C[C@@](C)(OC)[C@@H](N)[C@H](C)O2)[C@H](C)[C@@H](O[C@@H]2O[C@H](C)C[C@H](N(C)C)[C@H]2O)[C@](C)(O)C[C@@H](C)[C@@H]2O[C@@]1(C)[C@@H](N)[C@H]2C [Example 22, (4"S,9S,11S)-4",11-Diamino-9-deoxo-4",11,12-trideoxy-9,12-epoxyerythromycinA]
MIC [1]: 0.2 µg/mL (≈ 0.279 µM)
MIC [2]: 100 µg/mL (≈ 140 µM)
MIC [3]: > 100 µg/mL
MIC (Escherichia coli H560): 0.78 µg/mL (≈ 1.09 µM)
MIC [4]: 1.56 µg/mL (≈ 2.18 µM)
MIC [5]: 0.01 µg/mL (≈ 0.014 µM)
MIC (Acinetobacter SP CMX 669; Acinetobacter, SPCMX669, 24 h): 0.39 µg/mL (≈ 0.545 µM)
MIC (Staphylococcus aureus 45): 0.1 µg/mL (≈ 0.14 µM)
MIC [6]: 0.39 µg/mL (≈ 0.545 µM)
MIC [7]: 0.01 µg/mL (≈ 0.014 µM)
MIC (Escherichia coli SS): 0.1 µg/mL (≈ 0.14 µM)
MIC ([8]; ATCC13048, read-out: MIC): 6.2 µg/mL (≈ 8.66 µM)
MIC [9]: 0.05 µg/mL (≈ 0.0698 µM)
MIC [10]: 0.2 µg/mL (≈ 0.279 µM)
MIC [11]: ≤ 0.005 µg/mL
MIC [12]: 1.56 µg/mL (≈ 2.18 µM)
MIC [13]: 0.2 µg/mL (≈ 0.279 µM)
MIC [14]: 0.2 µg/mL (≈ 0.279 µM)
MIC ([15]; Staphylococcus aureus, A5177, 24 h): 1.56 µg/mL (≈ 2.18 µM)
MIC (Pseudomonas cepacia 2961): > 100 µg/mL
MIC [16]: > 100 µg/mL
MIC (Escherichia coli DC-2): 3.1 µg/mL (≈ 4.33 µM)
MIC (Escherichia coli JUHL; Escherichia coli JUHL, BHI agar, 20-24 h, read-out: MIC): 1.56 µg/mL (≈ 2.18 µM)
MIC [17]: 0.2 µg/mL (≈ 0.279 µM)
MIC [18]: 0.2 µg/mL (≈ 0.279 µM)
MIC [19]: 12.5 µg/mL (≈ 17.5 µM)
MIC [20]: 0.01 µg/mL (≈ 0.014 µM)
MIC ([21]; ATCC8043, Enterococcus faecium ATCC 8043, BHI agar, 20-24 h, read-out: MIC): 0.05 µg/mL (≈ 0.0698 µM)
half-life ([22]; iv, IV 10 mg/kg, HPLC (parent drug)): 9.3 h
half-life ([22]; iv, IV 10 mg/kg, microbiological assay): 10.2 h
bioavailability [22, 28]: 43%
bioavailability [22, 29]: 57%
Cmax [22, 28]: 3200 ng/mL
Cmax [22, 29]: 3500 ng/mL
Tmax [22, 28]: 0.5 h
Tmax [22, 29]: 0.6 h
half-life [22, 28]: 11.5 h
half-life [22, 29]: 9.8 h

CC[C@H]1OC(=O)[C@H](C)[C@@H](O[C@H]2C[C@@](C)(OC)[C@@H](N)[C@H](C)O2)[C@H](C)[C@@H](O[C@@H]2O[C@H](C)C[C@H](N(C)C)[C@H]2O)[C@](C)(O)C[C@@H](C)[C@@H]2O[C@@]1(C)[C@@H](O)[C@H]2C [Example 15, (4"S,9S,11S)-4"-Amino-9-deoxo-4",12-dideoxy-9,12-epoxyerythromycin A]
MIC [1]: 0.2 µg/mL (≈ 0.279 µM)
MIC [23]: 0.39 µg/mL (≈ 0.544 µM)
MIC [24]: 0.39 µg/mL (≈ 0.544 µM)
ED50 [25]: 30.1 mg/kg
ED50 ([26]; ATCC6303, 168 h, oral, read-out: ED50): 37.3 mg/kg
ED50 ([26]; ATCC6303, sc, 168 h, subcutaneous): 4 mg/kg
MIC [2]: 100 µg/mL (≈ 139 µM)
MIC [3]: > 100 µg/mL
MIC (Escherichia coli H560): 3.1 µg/mL (≈ 4.32 µM)
MIC [5]: 0.01 µg/mL (≈ 0.0139 µM)
MIC (Acinetobacter SP CMX 669; SPCMX669, Acinetobacter SP CMX 669, BHI agar, 20-24 h, read-out: MIC): 6.2 µg/mL (≈ 8.65 µM)
MIC (Staphylococcus aureus 45): 0.39 µg/mL (≈ 0.544 µM)
MIC [6]: 0.78 µg/mL (≈ 1.09 µM)
MIC [7]: 0.02 µg/mL (≈ 0.0279 µM)
MIC (Escherichia coli SS): 0.1 µg/mL (≈ 0.139 µM)
MIC ([8]; ATCC13048, 24 h): 50 µg/mL (≈ 69.7 µM)
MIC [9]: 0.05 µg/mL (≈ 0.0697 µM)
MIC [11]: 0.01 µg/mL (≈ 0.0139 µM)
MIC [12]: 6.2 µg/mL (≈ 8.65 µM)
MIC [14]: 0.2 µg/mL (≈ 0.279 µM)
MIC ([15]; Staphylococcus aureus A5177, BHI agar, 20-24 h, read-out: MIC): 1.56 µg/mL (≈ 2.18 µM)
MIC (Pseudomonas cepacia 2961): > 100 µg/mL
MIC [16]: > 100 µg/mL
MIC (Escherichia coli DC-2): 6.2 µg/mL (≈ 8.65 µM)
MIC (Escherichia coli JUHL; Escherichia coli, 24 h): 12.5 µg/mL (≈ 17.4 µM)
MIC [17]: 0.39 µg/mL (≈ 0.544 µM)
MIC [18]: 0.39 µg/mL (≈ 0.544 µM)
MIC [19]: 50 µg/mL (≈ 69.7 µM)
MIC [20]: 0.02 µg/mL (≈ 0.0279 µM)
MIC ([21]; Enterococcus faecium, ATCC8043, 24 h): 0.1 µg/mL (≈ 0.139 µM)
ED50 ([27]; C203, 168 h, oral): 47.9 mg/kg
ED50 ([27]; C203, sc, 168 h, subcutaneous): 5 mg/kg
